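Cells were grown in 96-well plates and exposed to each compound for 48 hours at five concentrations; endpoints were interpolated linearly between bracketing concentrations, or set to the highest concentration if not reached. At the GI50, growth is halved.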 Calls of active or inactive are those of the source. Rule as the data show it: active = GI50 up to about 1.1 µM and inactive = higher.
Tests used:
Test in all cases: inhibition of tumour cell growth, NCI panel, 48 h
786-0 = tested on: 786-0
BT-549 = tested on: BT-549
CCRF-CEM = tested on: CCRF-CEM
DU-145 = tested on: DU-145
HL-60 = tested on: HL-60
KM12 = tested on: KM12
M14 = tested on: M14
MDA-N = tested on: MDA-N
NCI-H23 = tested on: NCI-H23
OVCAR-4 = tested on: OVCAR-4
PC-3 = tested on: PC-3
SF-268 = tested on: SF-268
SF-295 = tested on: SF-295
SK-MEL-2 = tested on: SK-MEL-2
SN12C = tested on: SN12C
SNB-75 = tested on: SNB-75
SW-620 = tested on: SW-620
TK-10 = tested on: TK-10
UO-31 = tested on: UO-31
DMS-273 = tested on: DMS-273

Structure (SMILES)	GI50 (786-0)	GI50 (BT-549)	GI50 (CCRF-CEM)	GI50 (DU-145)	GI50 (HL-60)	GI50 (KM12)	GI50 (M14)	GI50 (MDA-N)	GI50 (NCI-H23)	GI50 (OVCAR-4)	GI50 (PC-3)	GI50 (SF-268)	GI50 (SF-295)	GI50 (SK-MEL-2)	GI50 (SN12C)	GI50 (SNB-75)	GI50 (SW-620)	GI50 (TK-10)	GI50 (UO-31)	GI50 (DMS-273)
CN(C)CC1CCC/C(=C\c2ccc(OC(=O)/C=C/c3ccccc3)cc2)C1=O (stereo not drawn)	0.776 µM (active)	2.11 µM (inactive)	0.265 µM (active)	2.47 µM (inactive)	1.85 µM (inactive)	1.28 µM (inactive)	2.36 µM (inactive)	2.52 µM (inactive)	1.91 µM (inactive)	2.35 µM (inactive)	4.74 µM (inactive)	3.37 µM (inactive)	3.56 µM (inactive)	3.52 µM (inactive)	2.01 µM (inactive)	6.04 µM (inactive)	1.95 µM (inactive)	1.73 µM (inactive)	1.83 µM (inactive)	
NS(=O)(=O)c1ccc(N=C2C(=O)Nc3ccccc32)cc1	> 100 µM (inactive)	> 100 µM (inactive)	55.8 µM (inactive)	> 100 µM (inactive)	> 100 µM (inactive)	> 100 µM (inactive)	> 100 µM (inactive)	> 100 µM (inactive)	> 100 µM (inactive)	> 100 µM (inactive)	> 100 µM (inactive)	> 100 µM (inactive)	> 100 µM (inactive)	> 100 µM (inactive)	> 100 µM (inactive)	> 100 µM (inactive)	> 100 µM (inactive)	> 100 µM (inactive)	> 100 µM (inactive)	
C=CC(C)(O)CCC1C(=C)C(O)CC2C(C)(C)CCCC12C (stereo not drawn)	18.6 µM (inactive)	18 µM (inactive)	18.5 µM (inactive)	18.2 µM (inactive)	14 µM (inactive)	21.1 µM (inactive)	16.3 µM (inactive)	20.4 µM (inactive)	18.7 µM (inactive)	20.5 µM (inactive)	15.3 µM (inactive)	19.9 µM (inactive)	21.1 µM (inactive)	16.3 µM (inactive)	18.9 µM (inactive)	48.3 µM (inactive)	20.7 µM (inactive)	20 µM (inactive)	15.2 µM (inactive)	
OC1COC(n2c3ccc(Br)cc3c3ccc4c5ccccc5[nH]c4c32)C(O)C1O (stereo not drawn)	3.96 µM (inactive)	1.1 µM (active)	4.72 µM (inactive)	3.66 µM (inactive)	3.48 µM (inactive)	1.56 µM (inactive)	3.12 µM (inactive)	4.4 µM (inactive)	3.02 µM (inactive)	13.5 µM (inactive)	2.21 µM (inactive)	3.84 µM (inactive)	0.538 µM (active)	0.658 µM (active)	4.84 µM (inactive)	3.24 µM (inactive)	0.644 µM (active)	4.28 µM (inactive)	2.82 µM (inactive)	
CCOC(=O)C(SCCO)C(C(=O)OCC)n1cc(C)c(=O)[nH]c1=O (stereo not drawn)	3.88 µM (inactive)	23.6 µM (inactive)	2.42 µM (inactive)	> 74.6 µM (inactive)	2.12 µM (inactive)	25.8 µM (inactive)	11.6 µM (inactive)	15.1 µM (inactive)	21.2 µM (inactive)	23 µM (inactive)	13.9 µM (inactive)	29.3 µM (inactive)	> 79.4 µM (inactive)	19.6 µM (inactive)	10.7 µM (inactive)	34.1 µM (inactive)	5.96 µM (inactive)	24.9 µM (inactive)	22.9 µM (inactive)	
Cc1nc2sccn2c1C(=O)N/N=C1\SCC(=O)N1C	> 100 µM (inactive)		> 100 µM (inactive)		> 100 µM (inactive)	> 100 µM (inactive)			> 100 µM (inactive)			> 100 µM (inactive)	> 100 µM (inactive)	> 100 µM (inactive)	> 100 µM (inactive)		> 100 µM (inactive)	> 100 µM (inactive)		> 100 µM (inactive)
c1n[nH]cc1C12C3C4C5C3C1C5C42 (stereo not drawn)	> 100 µM (inactive)	> 100 µM (inactive)	> 100 µM (inactive)	> 100 µM (inactive)	75.9 µM (inactive)	> 100 µM (inactive)	> 100 µM (inactive)	> 100 µM (inactive)	> 100 µM (inactive)	> 100 µM (inactive)	> 100 µM (inactive)	> 100 µM (inactive)	> 100 µM (inactive)	> 100 µM (inactive)	> 100 µM (inactive)	69.2 µM (inactive)	> 100 µM (inactive)	> 100 µM (inactive)	> 100 µM (inactive)	
O=C(O)CCCSC(=O)Nc1ccc(/N=N/c2ccccc2)cc1	> 100 µM (inactive)		31.7 µM (inactive)			> 100 µM (inactive)	> 100 µM (inactive)		> 100 µM (inactive)	> 100 µM (inactive)		56.1 µM (inactive)	> 100 µM (inactive)	> 100 µM (inactive)	> 100 µM (inactive)		> 100 µM (inactive)	> 100 µM (inactive)	> 100 µM (inactive)	> 100 µM (inactive)
CN1CCc2c3n(c4cc(Br)ccc24)[C@H](O)CCCC31 (stereo partly drawn)	1.7 µM (inactive)	> 10 µM (inactive)	1.87 µM (inactive)	> 10 µM (inactive)	1.85 µM (inactive)	2.38 µM (inactive)	1.79 µM (inactive)	1.82 µM (inactive)	> 10 µM (inactive)	2.67 µM (inactive)	5.89 µM (inactive)	> 9.31 µM (inactive)	1.77 µM (inactive)	0.736 µM (active)	> 7.16 µM (inactive)	2.3 µM (inactive)	1.96 µM (inactive)	> 7.36 µM (inactive)	> 7.52 µM (inactive)	
S=C1NC2=C(COC/C2=C\c2ccccc2Cl)C(c2ccccc2Cl)N1 (stereo not drawn)	36 µM (inactive)	48.8 µM (inactive)	8.75 µM (inactive)	70.8 µM (inactive)	11.4 µM (inactive)	11 µM (inactive)	25.8 µM (inactive)	32.7 µM (inactive)	34.9 µM (inactive)	31.3 µM (inactive)	14.3 µM (inactive)	51.4 µM (inactive)	35.2 µM (inactive)	21.2 µM (inactive)	33 µM (inactive)	49.5 µM (inactive)	25.5 µM (inactive)	55.8 µM (inactive)	19.5 µM (inactive)	
Cc1nc2c(Br)cc(Br)cc2c(=O)n1-c1ccccc1NC1OC(CO)C(O)C(O)C1O (stereo not drawn)	> 100 µM (inactive)	> 100 µM (inactive)	> 100 µM (inactive)	> 100 µM (inactive)	> 100 µM (inactive)	> 100 µM (inactive)	> 100 µM (inactive)	> 100 µM (inactive)	> 100 µM (inactive)	> 100 µM (inactive)	> 100 µM (inactive)	> 100 µM (inactive)	> 100 µM (inactive)	> 100 µM (inactive)	> 100 µM (inactive)	61.1 µM (inactive)	> 100 µM (inactive)	> 100 µM (inactive)	> 100 µM (inactive)	
CN(C)CCNC1=CC(=O)c2c(O)ccc(O)c2C1=O	4.7 µM (inactive)	14.6 µM (inactive)	3.94 µM (inactive)	13.8 µM (inactive)	1.95 µM (inactive)	6.35 µM (inactive)	3.23 µM (inactive)	1.97 µM (inactive)	4.98 µM (inactive)	4.54 µM (inactive)	5.77 µM (inactive)	12.3 µM (inactive)	11.4 µM (inactive)	8.95 µM (inactive)	6.47 µM (inactive)	17.1 µM (inactive)	3.3 µM (inactive)	14.4 µM (inactive)	12.4 µM (inactive)	
NCS(=O)(=O)O	> 100 µM (inactive)	> 100 µM (inactive)	> 100 µM (inactive)	> 100 µM (inactive)	> 100 µM (inactive)	> 100 µM (inactive)	> 100 µM (inactive)	> 100 µM (inactive)	> 100 µM (inactive)	83.4 µM (inactive)	> 100 µM (inactive)	> 100 µM (inactive)	> 100 µM (inactive)	> 100 µM (inactive)	> 100 µM (inactive)	> 100 µM (inactive)	> 100 µM (inactive)	> 100 µM (inactive)	> 100 µM (inactive)	
O=S(=O)(O)c1ccc2c(/N=N/c3c(O)ccc4ccccc34)cccc2c1	> 100 µM (inactive)	> 100 µM (inactive)	70.6 µM (inactive)	> 100 µM (inactive)	> 100 µM (inactive)	> 100 µM (inactive)	> 100 µM (inactive)	> 100 µM (inactive)	> 100 µM (inactive)	> 100 µM (inactive)	> 100 µM (inactive)	> 100 µM (inactive)	> 100 µM (inactive)	> 100 µM (inactive)	> 100 µM (inactive)	> 100 µM (inactive)	> 100 µM (inactive)	> 100 µM (inactive)	> 100 µM (inactive)	
COC(=O)CCC(C)C1CCC2C3C(C[C@H](OC(C)=O)[C@]12C)[C@@]1(C)CCC2(C[C@H]1C[C@H]3OC(C)=O)OOC1(CC[C@]3(C)C4C[C@H](OC(C)=O)[C@]5(C)C(C(C)CCC(=O)OC)CCC5C4[C@H](OC(C)=O)C[C@@H]3C1)OO2 (stereo partly drawn)	> 100 µM (inactive)	97.3 µM (inactive)	14.8 µM (inactive)	73.1 µM (inactive)	38.3 µM (inactive)	> 100 µM (inactive)	> 100 µM (inactive)	> 100 µM (inactive)	84.7 µM (inactive)	> 100 µM (inactive)	> 100 µM (inactive)	92 µM (inactive)	78.7 µM (inactive)	> 100 µM (inactive)	83.2 µM (inactive)	68.4 µM (inactive)	> 100 µM (inactive)	> 100 µM (inactive)	30.9 µM (inactive)	
